Key:
Test in all cases: relative viability (nuclei count vs DMSO), 5 days (fraction); higher = more cells survive
QS11 = compound: C1CC2=C(C1)C=C(C=C2)OC3=NC(=C4C(=N3)N(C=N4)CC5=CC=C(C=C5)C6=CC=CC=C6)N[C@@H](CC7=CC=CC=C7)CO [QS11]
Summary of the method: (§1)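 Acceptance criteria were a control CV below 25% and at least one doubling per plate. Lung cancer cell lines in 1536-well plates got five library-drug doses (not always all listed) √10 apart by pinning and were left 5 days with no medium change. Viability divides treated-well nuclei by vehicle-well nuclei and is the median across plates. Nuclei were counted by MetaXpress from 4× Hoechst images.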

AZ628 = compound: CC1=C(C=C(C=C1)NC(=O)C2=CC(=CC=C2)C(C)(C)C#N)NC3=CC4=C(C=C3)N=CN(C4=O)C [AZ628]
Summary of the method: as §1

Darinaparsin = compound: C[As](C)SC[C@H](NC(=O)CC[C@H](N)C(=O)O)C(=O)NCC(=O)O [Darinaparsin]
Summary of the method: as §1

AZ628 + Crizotinib = compound: CC1=C(C=C(C=C1)NC(=O)C2=CC(=CC=C2)C(C)(C)C#N)NC3=CC4=C(C=C3)N=CN(C4=O)C [AZ628] + C[C@@H](Oc1cc(-c2cnn(C3CCNCC3)c2)cnc1N)c1c(Cl)ccc(F)c1Cl [Crizotinib] (partner 1 µM)
Summary of the method: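 The day after seeding in 1536-well plates, lung cancer cell lines were treated by pin tool with a single drug, or with a fixed anchor-drug dose together with five library-drug doses (not always all listed) in √10 steps. After 5 days, a combined fix-and-stain solution (final 0.05% Triton X-100, 1% formaldehyde, 1 ug/ml Hoechst) was added. Nuclei counted on 4× images gave relative viability as treated counts over vehicle counts, reported as the median of duplicate plates.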

Cell Line | relative viability (QS11; 0.08 µM) | relative viability (QS11; 0.253 µM) | relative viability (QS11; 2.53 µM) | relative viability (QS11; 8 µM) | relative viability (AZ628; 0.08 µM) | relative viability (AZ628; 0.253 µM) | relative viability (AZ628; 0.8 µM) | relative viability (AZ628; 2.53 µM) | relative viability (AZ628; 8 µM) | relative viability (Darinaparsin; 0.08 µM) | relative viability (Darinaparsin; 0.8 µM) | relative viability (Darinaparsin; 2.53 µM) | relative viability (Darinaparsin; 8 µM) | relative viability (AZ628 + Crizotinib; first compound 0.08 µM) | relative viability (AZ628 + Crizotinib; first compound 0.253 µM) | relative viability (AZ628 + Crizotinib; first compound 0.8 µM) | relative viability (AZ628 + Crizotinib; first compound 2.53 µM) | relative viability (AZ628 + Crizotinib; first compound 8 µM) | relative viability (QS11; 0.8 µM)
HARA | 0.931 | 0.875 | 1.02 | 0.995 | 0.978 | 0.962 | 0.825 | 0.974 | 0.563 | 1.08 | 0.88 | 0.914 | 1.04 | 0.904 | 1.05 | 0.951 | 0.82 | 0.476 | 
NCI-H1755 | 1.03 | 0.983 | 0.861 | 0.783 | 0.992 | 1.02 | 0.97 | 0.989 | 0.948 | 1.12 | 0.964 | 0.945 | 1.13 | 0.809 | 0.818 | 0.786 | 0.811 | 0.769 | 0.638
NCI-H460 | 1.05 | 1.02 | 0.96 | 0.796 | 0.977 | 0.996 | 0.908 | 1.04 | 0.673 | 1.1 | 1 | 0.997 | 1.35 | 1.03 | 0.92 | 0.872 | 0.7 | 0.38 | 0.777
NCI-H2170 | 1.04 | 1 | 1.05 | 1.2 | 1.01 | 0.964 | 0.936 | 1.02 | 0.983 | 1.11 | 0.978 | 0.845 | 1.18 | 1.23 | 1.19 | 1.12 | 1.15 | 1.21 | 0.728
NCI-H3122 | 1.03 | 1.07 | 1.11 | 0.972 | 0.956 | 0.736 | 0.648 | 0.598 | 0.403 | 1.06 | 1.01 | 1.01 | 1.16 | 0.349 | 0.252 | 0.29 | 0.238 | 0.234 | 
COR-L 105 | 0.895 | 0.89 | 0.892 | 0.831 | 1.01 | 1.14 | 0.951 | 0.928 | 0.592 | 0.996 | 0.986 | 0.781 | 1.03 | 1.07 | 0.728 | 0.744 | 0.757 | 0.438 | 0.822
NCI-H2087 | 1.02 | 0.937 | 0.874 | 0.898 | 0.92 | 0.671 | 0.729 | 0.814 | 0.336 | 1.14 | 1.14 | 1.01 | 1.13 | 0.926 | 1.04 | 1.03 | 0.926 | 0.362 | 0.854
NCI-H1792 | 0.738 | 0.903 | 0.823 | 0.669 | 1.11 | 0.833 | 0.766 | 0.746 | 0.456 | 0.929 | 1.01 |  | 1.28 | 1.08 | 0.916 | 0.771 | 0.881 | 0.633 | 0.827
HCC-366 | 1.01 | 1.01 | 0.98 | 0.447 | 1.01 | 0.952 | 0.884 | 0.955 | 0.876 | 1.01 | 1.07 | 1.03 | 1.32 | 0.519 | 0.627 | 0.308 | 0.427 | 0.236 | 
NCI-H2347 | 0.938 | 1.05 | 0.906 | 0.906 | 0.775 | 0.895 | 0.854 | 0.76 | 0.485 | 1.05 | 0.961 | 0.994 | 1.19 | 0.689 | 0.832 | 0.709 | 0.589 | 0.443 | 0.873
201T | 0.994 | 0.909 | 0.895 | 0.828 | 1.03 | 0.997 | 1.07 | 1.06 | 1.04 | 0.996 | 0.998 | 0.947 | 0.986 | 1.05 | 0.999 | 1.06 | 1.06 | 1.08 | 0.819
NCI-H358 | 0.92 | 0.99 | 1.37 | 1.01 | 0.846 | 0.654 | 0.598 | 0.583 | 0.435 | 1.07 | 0.872 | 0.832 | 0.984 | 0.393 | 0.435 | 0.583 | 0.51 | 0.32 | 1.11
NCI-H1993 | 1.02 | 0.884 | 0.992 | 0.824 | 0.995 | 0.848 | 0.835 | 0.735 | 0.515 | 1.02 | 0.885 | 1.03 | 0.922 | 0.933 | 0.943 | 0.873 | 0.77 | 0.729 | 0.918
NCI-H2009 | 1.03 | 1.01 | 0.902 | 0.894 | 0.948 | 0.933 | 0.598 | 0.711 | 0.379 | 1.12 | 1.03 | 0.949 | 1.03 | 0.848 | 0.722 | 0.524 | 0.703 | 0.292 | 0.756
EMC-BAC-2 | 1.02 | 0.964 | 0.986 | 0.79 | 1.05 | 1 | 1.04 | 1.07 | 1.09 | 1.18 | 0.942 | 1.04 | 1.01 | 0.809 | 0.759 | 0.76 | 0.795 | 0.874 | 0.86
NCI-H2023 | 1.04 | 0.987 | 1.09 | 0.805 | 1.11 | 1.03 | 0.974 | 0.915 | 0.674 | 1.08 | 0.952 | 0.992 | 1.23 | 0.638 | 0.663 | 0.622 | 0.635 | 0.478 | 0.895
RERF-LC-KJ | 0.98 | 0.954 | 0.974 | 0.981 | 1.01 | 0.981 | 0.883 | 0.965 | 0.887 | 1.05 | 1.07 | 0.944 | 1.12 | 0.779 | 0.817 | 0.868 | 0.85 | 0.726 | 0.912
